Consider 6 compounds from publication PMC12264794, “Homoleptic complexes of titanium(IV) fused with O^N^O Schiff base derivatives: design, BSA–DNA interaction, molecular docking, DFT and cytotoxicity” (RSC Advances, 2025).

For experiment [1], the system named is HeLa cells. Briefly: MTT cytotoxicity assay, HeLa. Conditions: for IC50: 48 h of drug exposure; for Selectivity: HeLa cell lines. The format is cell-based, human. How it is done: The in vitro cytotoxicity of the Ti(IV) complexes under investigation was investigated using MTT, a micro-titration colorimetric method. The in vitro cytotoxicity test of the Ti(IV) complexes was evaluated against the cervical cancer cell line (HeLa), human breast cancer cell line (MCF-7) and human kidney normal cell line (HEK-293).[65,66]
In the cytotoxicity assay, tetrazolium salt 3-[4,5-dimethylthiazol-2-yl]-2,5diphenyl tetrazolium bromide (MTT) was utilized to assess cell viability. The MTT powder was diluted in Dulbecco's PBS (stock solution of MTT (5 mg mL^−1)) to attain a final concentration of 0.5 mg mL^−1 and a […] was used to filter and sterilize the stock solution, which was then kept at 2–6 °C. In metabolically active cells, MTT is reduced to produce an insoluble purple formazan product. In the exponential phase, cells were taken out of the stored cultures after the 48-hour recovery period, following seeding onto 96-well plates at a density of 1 × 10^4 cells per well in 100 μL medium at 37 °C in a 95% air and 5% CO2 environment, and the cells were incubated for 12 hours. Cell lines were treated for 48 hours with Ti(IV) complexes at varying doses (9.5–300 μM) and cis-platin as a control (apart from normal cells). After 48 hours of incubation at 37 °C, the medium was removed and 100 μL of DMSO was added to dissolve the […], and the culture plates were shaken for five minutes. A Bio-Rad xMARK™ multi-well plate reader was used to measure the absorbance of each well at 570 nm. Using eqn (2), the percentage viability, which represents the relative viability of the treated cells in comparison to the control cells, was calculated, and the IC50 values and standard deviation of the substances under investigation were calculated in triplicate.2 [drawing 2]
An MTT assay was used to examine the cytotoxic effectiveness of the produced Ti(IV) complexes. After 48 hours of incubation, the cytotoxicity of Ti-1-IS to Ti-6-IBr was evaluated against human cancer cell lines, such as breast carcinoma (MCF7) and cervical cancer (HeLa), as well as the non-cancerous human embryonic kidney (HEK) cell line, by using the widely used therapeutic drug, cis-platin, as a positive control by following the standard protocol.
A general note: Tetrazolium dyes change colour on reduction, which living cells bring about.

Experiment [2] can be described thus: DPPH radical scavenging assay. The experiment is classed as biochemical. Conditions: 40 minutes, absorbance at 517 nm. From the text: In the current study, 1,1-diphenyl 2-picrylhydrazyl (DPPH) radical scavenging screening determined the antioxidant properties of the synthesized Ti(IV) complexes. The spectrophotometric principle that led to the quenching of stable-colored radicals (DPPH) is the foundation of DPPH assays.[62] By detecting the drop in absorbance at 517 nm, which corresponds to the DPPH free radical, the scavenging activity of the produced complexes can be determined. The result of the reaction between the scavenger and colored free radical is 1,1-diphenyl-2-picrylhydrazine (DPPH-H), which lacks color. The newly synthesized Ti(IV) complexes were dissolved at a ratio of 1 mg mL^−1 in DMSO to create the stock solution. Similarly, methanol was used to prepare a stock solution of a 0.05 Mm DPPH solution. The Ti(IV) complexes were dissolved in DPPH stock solution to make (9.5 μM, 18.75 μM, 37.5 μM, 75 μM, 100 μM, and 300 μM) concentrations of the complexes and kept in a state of rest for 40 minutes under closed conditions. The absorbance of the Ti(IV) complexes was measured at 517 nm after 40 minutes for each solution loaded in 96-well plates using a Bio-Rad xMARK™ Microplate Spectrophotometer. For comparison, the absorbance of a control solution containing DPPH and methanol as blank, devoid of test samples, was also measured at the same level. Three sets of experiments were conducted for each concentration, using ascorbic acid as the standard reference. Using eqn (1), the proportion of DPPH free radical scavenging activity was calculated.[63]1 [drawing 1] where Ac and As are the absorbance of the control and the mixture. The necessary concentration of the Ti(IV) complexes to scavenge DPPH radicals was determined by employing linear regression to plot a curve between concentration and % inhibition.
In order to ascertain the antioxidant activity of the Ti(IV) complexes, a UV-vis spectrophotometric examination was performed using the 1,1-diphenyl-2-picrylhydrazyl (DPPH) method. Since DPPH is thought to be a dependable, stable, free radical, it reacts with methanol to form a […]. The ability of the complexes containing DPPH radicals to scavenge radicals was evaluated in the manner described. Several concentrations of the Ti(IV) complexes were investigated. Mixtures created by mixing DPPH with each component were subjected to spectrophotometric analysis at 517 nm to determine the absorbance. Antioxidant compounds usually transfer one electron to act as a reducing agent.
On the technique in general: Loss of DPPH colour is used to gauge radical scavenging.

In experiment [3] the test system is HeLa cells. In words: AO–EB staining assay. The format is cell-based, human. The note with it: IC50 concentration, 48 hours. How it is done: A dual AO–EB staining fluorescent labelling technique was performed utilizing the Gohel et al. protocol, HeLa cells were seeded in 6-well plates at a density of 5 × 10^4. They were grown in a humidified CO2 incubator at 37 °C until they reached 70–80% confluency. […] The media were removed from each well, and the cells underwent two gentle room-temperature PBS rinses. Following that, the cells were combined with 100 μL of ethidium bromide and acridine orange dye and incubated separately for 15 minutes at 37 °C after staining separately, and the plates were observed and images were captured with an Olympus Confocal Laser Scanning Microscope—Fluoview Fv3000.[67,68]
The most important requirement in the creation of novel anticancer drugs is to determine the apoplastic induction caused by the drug concerned. AO–EB assay staining aids in the differentiation of necrotic, apoptotic, and living cells. By means of AO–EB staining, the morphological alterations caused by Ti-1-IS to Ti-6-IBr in HeLa cells were investigated. AO can penetrate intact cell membranes and dye them green; this distinction is caused in early apoptotic as well as normal cells. In contrast, EB can only enter cells that have lost their ability to form membranes, leaving an orange stain behind, identifying them as necrotic or late apoptotic cells.

Experiment [4] has as its system HeLa cells. In words: Flow cytometry cell cycle analysis by PI staining. The format is cell-based, human. Conditions: 48 h, complexes at IC50, cis-platin 5 μM. How it is done:
A flow cytometer was also used to do the apoptotic assessment. HeLa cells (5 × 10^5) were seeded onto 6-well plates using Dulbecco's Modified Eagle Medium paper (DMEM) with 10% FBS. The plates were incubated overnight at 37 °C with 95% air and 5% CO2. […] Following trypsinization, the cells were collected, cleaned with PBS, and fixed for 24 hours at 2–6 °C in ice-cold 70% ethanol. Centrifugation was used to remove the ethanol, and cold PBS was used twice to wash the cell pellets. Later the cells were stained with propidium iodide (PI, 1 mg mL^−1) and incubated for 30 min. Flow cytometric analysis was performed using a FACS scanner and the Becton Dickinson cell search program at 595 nm and the distribution of cells in various cell cycle phases was determined.[69,70]
Through cell cycle analysis, the mechanism of cancer cell death caused by the complexes was evaluated. Anticancer drugs promote growth-inhibitory action in cancer cells by a variety of mechanisms, one of which is dysfunction in the regulation of the cell cycle.[32] For example, cis-platin inhibits DNA transcription in cells by stopping the cell cycle in the S and G2/M phases. PI staining and flow cytometry were used to examine the ability of the complexes to modify the cell cycle (Fig. 19).
On the technique in general: A flow cytometer gives signals particle by particle.

Take `Brc1ccc2c(c1)C=NN=C(c1ccncc1)[O][Ti]1([O]C(c3ccncc3)=NN=Cc3cc(Br)ccc3[O]1)[O]2` (stereo not shown) [Ti-6-IBr]: the figures for the IC50 (in the experiment on HeLa cells [1]; in experiment [2]) were 78.64 ± 0.2 µM and 74.84 ± 0.2 µM, respectively.

Consider `COc1cccc(C=NN=C([O-])c2ccncc2)c1[O-].COc1cccc(C=NN=C([O-])c2ccncc2)c1[O-].[Ti+4]` [Ti-3-IO], for which, in the experiment with HeLa cells [1], the IC50 came to 27.2 ± 1.1 µM and the Selectivity is reported as greater than 29. Besides, the “Apoptosis induction by AO–EB staining” value with HeLa cells [3] was “apoptosis was triggered”. Further, in experiment [2], the IC50 came out at 44.59 ± 0.4 µM. For the same compound, in the experiment with HeLa cells [4], the G0/G1 phase worked out at 18.32%, the “S Phase” value is listed as 19.41% and the Sub-G0 phase is on record as 28.48%.

For the compound `[O-]C(=NN=Cc1c([O-])ccc2ccccc12)c1ccncc1.[O-]C(=NN=Cc1c([O-])ccc2ccccc12)c1ccncc1.[Ti+4]` [Ti-2-IN], the IC50 with HeLa cells [1] amounted to 74.04 ± 0.5 µM; in experiment [2] it was 128.1 ± 0.3 µM.

For the compound `[O-]C(=NN=Cc1ccccc1[O-])c1ccncc1.[O-]C(=NN=Cc1ccccc1[O-])c1ccncc1.[Ti+4]` [Ti-1-IS], the IC50 in the experiment with HeLa cells [1] was found to be 61.76 ± 0.1 µM; in experiment [2], 92.01 ± 0.1 µM.

`[O-]C(=NN=Cc1cc(Cl)ccc1[O-])c1ccncc1.[O-]C(=NN=Cc1cc(Cl)ccc1[O-])c1ccncc1.[Ti+4]` [Ti-5-ICl]: in the experiment on HeLa cells [1], the IC50 was 24.2 ± 0.7 µM and the Selectivity is reported as greater than 26. Also, the “Apoptosis induction by AO–EB staining” value in the experiment with HeLa cells [3] is reported as “apoptosis was triggered”. The IC50 in experiment [2] came out at 72.26 ± 0.7 µM. Also, in the experiment with HeLa cells [4], the G0/G1 phase worked out at 7.45%, the “S Phase” value is on record as 16.10% and the Sub-G0 phase turned out to be 14.72%.

Consider `[O-]C(=NN=Cc1cc(F)ccc1[O-])c1ccncc1.[O-]C(=NN=Cc1cc(F)ccc1[O-])c1ccncc1.[Ti+4]` [Ti-4-IF], for which the IC50 with HeLa cells [1] came out at 47.3 ± 0.5 µM; in experiment [2], 82.61 ± 0.1 µM.

Broadly, the IC50 is the point on the concentration scale where inhibition reaches its midpoint. Lower therefore signals greater potency.
